The source of these data is patent US20220064138A1, “MACROLIDE BREFELDIN A ESTER DERIVATIVES AND USE THEREOF” (OCEAN UNIVERSITY OF CHINA, priority 2019, published 2022).

pIC50: −log10 of the molar value.

Common to all, as to assay: Cell proliferation assay (CCK-8)
What all share (format): cell-based

Assay [1] relates to human gastric cancer MKN-45 cells. The settings on record: MKN-45, 72 h. The text has this: (§1) CCK-8 method: The CCK-8 method is a highly sensitive, non-radioactive colorimetric assay for the determination of the number of viable cells in cell proliferation or cytotoxicity assays. The orange formazan dye produced by the bioreduction of CCK-8 by intracellular dehydrogenase is soluble in the cell culture medium, and the amount of formazan dye produced is proportional to the number of living cells. The kit used in this method is the tetrazolium salt-WST-8 (2-(2-methoxy-4-nitrophenyl)-3-(4-nitrophenyl)-5-(2,4-disulfophenyl)-2H-tetrazolium monosodium salt) developed by Dojindo Chemical Research Institute (Dojindo), which is capable of being reduced to a water-soluble formazan dye in the presence of the electronic carrier 1-Methoxy PMS.
(§2) Human cervical cancer Hela cells, pancreatic cancer PANC-1 cells, esophageal cancer Eca-109 cells, human leukemia K562 cells, human lung cancer A549 cells, human liver cancer HepG2 cells, human gastric cancer MKN-45 cells, human breast cancer MCF7 cells were cultured in DMEM medium containing 10% FBS (fetal bovine serum), 100 U/mL penicillin and 100 μg/ml streptomycin. Hepatocellular carcinoma cells Bel-7402 were cultured in RPMI-1640 medium containing 10% FBS (fetal bovine serum), 100 U/ml penicillin and 100 μg/ml streptomycin. All cells were placed in a cell culture incubator at 37° C. with 5% CO2. Cells fluid was changed every 3-5 days, and after 80% cell fusion, trypsin digestion and passaging were performed to keep the cells in good logarithmic growth phase.
(§3) All the samples to be tested were dissolved in DMSO.
(§4) Cells in logarithmic growth phase were inoculated in 96-well plates with 5000 cells/well respectively, and after 24 h of incubation, samples were added (final concentrations as shown in the table), and biplicate wells were set up for each sample. The amount of solvent of DMSO was not higher than 2‰. After 72 h, 10 μL of CCK-8 solution was added to each well and incubated for 1.5˜3 h at 37° C. The OD value at 450 nm was measured on an plate reader.
(§5) Inhibition rate (%)=(1−[(OD450 dosed well−OD450 blank well)/(OD450 control well−OD450 blank well)])×100%
(§6) The fitted IC50 values were calculated using the log (inhibitor) vs. response-Variable slop analysis method in GraphPad Prism software.

For assay [2], the system named is pancreatic cancer PANC-1 cells. The settings on record: Homo sapiens, PANC-1, 72 h.
Description: as §1, §2, §3, §4, §5, §6

The subject of assay [3] is Human cervical cancer Hela cells. The settings on record: 72 h.
Description: as §1, §2, §3, §4, §5, §6

Assay [4] deals with human breast cancer MCF7 cells. The settings on record: MCF7, 72 h.
Description: as §1, §2, §3, §4, §5, §6

Assay [5] concerns human leukemia K562 cells. The settings on record: K562, 72 h.
Description: as §1, §2, §3, §4, §5, §6

The subject of assay [6] is esophageal cancer Eca-109 cells. The settings on record: Homo sapiens, Eca-109, 72 h.
Description: as §1, §2, §3, §4, §5, §6

Assay [7] deals with human liver cancer HepG2 cells. The settings on record: HepG2, 72 h.
Description: as §1, §2, §3, §4, §5, §6

Assay [8] has as its system human lung cancer A549 cells. The settings on record: A549, 72 h.
Description: as §1, §2, §3, §4, §5, §6

Usually pIC50 stands for the negative decadic logarithm of the IC50, by convention in mol/L. The low end stands for a high IC50, the high end for a low IC50. As to `C[C@H]1CCC/C=C/[C@@H]2C[C@H](OC(=O)/C=C/c3ccccn3)C[C@H]2[C@H](O)/C=C/C(=O)O1` [Compound 15a, 7-O-(3-(pyridine-2-yl)acrylic acid)acyl BFA], the pIC50 was 6.00 to 7.00 in assay [1]; over 7.00 in assay [2]; 6.00 to 7.00 in assay [3]; 6.00 to 7.00 in assay [4]; 6.00 to 7.00 in assay [5]; 5.00 to 6.00 in assay [6]. In addition, the pIC50 in assay [7] is over 7.00; in assay [8], 6.00 to 7.00.

Take `COc1cc(/C=C/C(=O)O[C@@H]2C[C@@H]3[C@H](/C=C/CCC[C@H](C)OC(=O)/C=C/[C@H]3OC(=O)/C=C/c3cc(OC)c(OC)c(OC)c3)C2)cc(OC)c1OC` [Compound 11c, 4,7-O-bis(3,4,5-trimethoxycinnamic acid)acyl BFA]: the pIC50 in assay [1] was 5.00 to 6.00; in assay [2], 5.00 to 6.00; in assay [3], 5.00 to 6.00; in assay [4], 5.00 to 6.00; in assay [5], 6.00 to 7.00; in assay [6] it was 5.00 to 6.00. The pIC50 was 5.00 to 6.00 in assay [7] and 6.00 to 7.00 in assay [8].

Turning to `C[C@H]1CCC/C=C/[C@@H]2C[C@H](OC(=O)/C=C/c3ccccc3F)C[C@H]2[C@H](OC(=O)/C=C/c2ccccc2F)/C=C/C(=O)O1` [Compound 2c, 4,7-O-bis(2-fluorocinnamic acid)acyl BFA], the negative-log IC50 (pIC50) is 6.00 to 7.00 in assay [1]; 5.00 to 6.00 in assay [2]; 5.00 to 6.00 in assay [3]; 5.00 to 6.00 in assay [4]; 6.00 to 7.00 in assay [5]; 5.00 to 6.00 in assay [6]. Also, the pIC50 in assay [7] and in assay [8] was 5.00 to 6.00 throughout.

Take `Cc1ccccc1/C=C/C(=O)O[C@@H]1/C=C/C(=O)O[C@@H](C)CCC/C=C/[C@@H]2C[C@H](O)C[C@H]21` [Compound 8b, 4-O-(2-methylcinnamic acid)acyl BFA]: the pIC50 in assay [1] is 6.00 to 7.00; in assay [2], 6.00 to 7.00; in assay [3] it was 5.00 to 6.00; in assay [4] it was 6.00 to 7.00; in assay [5], 5.00 to 6.00; in assay [6], 6.00 to 7.00. Besides, the negative-log IC50 (pIC50) in assay [7] and in assay [8] was 6.00 to 7.00 each time.

For `Cc1ccccc1/C=C/C(=O)O[C@@H]1C[C@@H]2[C@H](/C=C/CCC[C@H](C)OC(=O)/C=C/[C@H]2OC(=O)/C=C/c2ccccc2C)C1` [Compound 8c, 4,7-O-bis(2-methylcinnamic acid)acyl BFA], the pIC50 was 6.00 to 7.00 in assay [1]; 5.00 to 6.00 in assay [2]; 5.00 to 6.00 in assay [3]; 5.00 to 6.00 in assay [4]; 5.00 to 6.00 in assay [5]; 6.00 to 7.00 in assay [6]. Also, the pIC50 in assay [7] and in assay [8] was 5.00 to 6.00 each time.

As to `C[C@H]1CCC/C=C/[C@@H]2C[C@H](OC(=O)/C=C/c3ccccc3Br)C[C@H]2[C@H](OC(=O)/C=C/c2ccccc2Br)/C=C/C(=O)O1` [Compound 4c, 4,7-O-bis(2-bromocinnamic acid)acyl BFA], the pIC50 in assay [1] is 6.00 to 7.00; in assay [2], 5.00 to 6.00; in assay [3], 6.00 to 7.00; in assay [4] it was 5.00 to 6.00; in assay [5] it was 5.00 to 6.00; in assay [6], 5.00 to 6.00. The negative logarithm of the IC50 (pIC50) in assay [7] is 5.00 to 6.00; in assay [8], 6.00 to 7.00.

Turning to `C[C@H]1CCC/C=C/[C@@H]2C[C@H](OC(=O)/C=C/c3ccc(C(F)(F)F)cc3)C[C@H]2[C@H](OC(=O)/C=C/c2ccc(C(F)(F)F)cc2)/C=C/C(=O)O1` [Compound 13c, 4,7-O-bis(4-trifluoromethylcinnamic acid)acyl BFA], the pIC50 is 5.00 to 6.00 in assay [1]; 5.00 to 6.00 in assay [2]; 5.00 to 6.00 in assay [3]; 5.00 to 6.00 in assay [4]; 6.00 to 7.00 in assay [5]; 5.00 to 6.00 in assay [6]. For the same compound, the pIC50 is 5.00 to 6.00 in assay [7] and 6.00 to 7.00 in assay [8].

`Cc1cccc(/C=C/C(=O)O[C@@H]2/C=C/C(=O)O[C@@H](C)CCC/C=C/[C@@H]3C[C@H](O)C[C@H]32)c1` [Compound 6b, 4-O-(3-methylcinnamic acid)acyl BFA]: the pIC50 in assay [1], in assay [2], in assay [3], in assay [4], in assay [5] and in assay [6] was 6.00 to 7.00 in each case. The pIC50 in assay [7] and in assay [8] was 6.00 to 7.00 each time.

On to `Cc1ccccc1/C=C/C(=O)O[C@@H]1C[C@H]2[C@H](O)/C=C/C(=O)O[C@@H](C)CCC/C=C/[C@@H]2C1` [Compound 8a, 7-O-(2-methylcinnamic acid)acyl BFA], for which the pIC50 was 6.00 to 7.00 in assay [1]; 6.00 to 7.00 in assay [2]; 5.00 to 6.00 in assay [3]; 6.00 to 7.00 in assay [4]; 5.00 to 6.00 in assay [5]; 6.00 to 7.00 in assay [6]. Further, the pIC50 is 5.00 to 6.00 in assay [7] and 6.00 to 7.00 in assay [8].

For `C[C@H]1CCC/C=C/[C@@H]2C[C@H](O)C[C@H]2[C@H](OC(=O)/C=C/c2ccncc2)/C=C/C(=O)O1` [Compound 14b], the negative-log IC50 (pIC50) is 6.00 to 7.00 in assay [1]; over 7.00 in assay [2]; 6.00 to 7.00 in assay [3]; 6.00 to 7.00 in assay [4]; 6.00 to 7.00 in assay [5]; 5.00 to 6.00 in assay [6]. Further, the negative logarithm of the IC50 (pIC50) in assay [7] is over 7.00; in assay [8], 6.00 to 7.00.

For `C[C@H]1CCC/C=C/[C@@H]2C[C@H](OC(=O)/C=C/c3ccccc3Br)C[C@H]2[C@H](O)/C=C/C(=O)O1` [Compound 4a, 7-O-(2-bromocinnamic acid)acyl BFA], the pIC50 in assay [1], in assay [2], in assay [3], in assay [4], in assay [5] and in assay [6] was 6.00 to 7.00 in each case. For the same compound, the pIC50 in assay [7] and in assay [8] was 6.00 to 7.00 each time.

For `Cc1cccc(/C=C/C(=O)O[C@@H]2C[C@H]3[C@H](O)/C=C/C(=O)O[C@@H](C)CCC/C=C/[C@@H]3C2)c1` [Compound 6a, 7-O-(3-methylcinnamic acid)acyl BFA], the pIC50 in assay [1] was 6.00 to 7.00; in assay [2] it was 6.00 to 7.00; in assay [3], 5.00 to 6.00; in assay [4], 6.00 to 7.00; in assay [5], 6.00 to 7.00; in assay [6] it was 6.00 to 7.00. The figures for the pIC50 in assay [7] and in assay [8] were 5.00 to 6.00 and 6.00 to 7.00, respectively.

Take `C[C@H]1CCC/C=C/[C@@H]2C[C@H](O)C[C@H]2[C@H](OC(=O)/C=C/c2ccccn2)/C=C/C(=O)O1` [Compound 15b]: the pIC50 is 6.00 to 7.00 in assay [1]; over 7.00 in assay [2]; 6.00 to 7.00 in assay [3]; 6.00 to 7.00 in assay [4]; 6.00 to 7.00 in assay [5]; 6.00 to 7.00 in assay [6]. For the same compound, the negative logarithm of the IC50 (pIC50) in assay [7] is over 7.00; in assay [8], 6.00 to 7.00.

With `C[C@H]1CCC/C=C/[C@@H]2C[C@H](O)C[C@H]2[C@H](OC(=O)/C=C/c2cnc3ccccc3c2)/C=C/C(=O)O1` [Compound 17b], the pIC50 in assay [1] is 6.00 to 7.00; in assay [2] it was over 7.00; in assay [3] it was 6.00 to 7.00; in assay [4], 6.00 to 7.00; in assay [5], 6.00 to 7.00; in assay [6], 6.00 to 7.00. In addition, the pIC50 in assay [7] is over 7.00; in assay [8], 6.00 to 7.00.

For `C[C@H]1CCC/C=C/[C@@H]2C[C@H](OC(=O)/C=C/c3ccc(F)cc3)C[C@H]2[C@H](O)/C=C/C(=O)O1` [Compound 3a, 7-O-(4-fluorocinnamic acid)acyl BFA], the pIC50 in assay [1] is 6.00 to 7.00; in assay [2], 6.00 to 7.00; in assay [3], 5.00 to 6.00; in assay [4], 6.00 to 7.00; in assay [5], 6.00 to 7.00; in assay [6], 5.00 to 6.00. The pIC50 in assay [7] and in assay [8] was 6.00 to 7.00 each time.

For the compound `C[C@H]1CCC/C=C/[C@@H]2C[C@H](O)C[C@H]2[C@H](OC(=O)/C=C/c2cccc(Cl)c2)/C=C/C(=O)O1` [Compound 5b, 4-O-(3-chlorocinnamic acid)acyl BFA], the pIC50 in assay [1], in assay [2], in assay [3], in assay [4], in assay [5] and in assay [6] was 6.00 to 7.00 each time. The pIC50 in assay [7] and in assay [8] was 6.00 to 7.00 each time.
